Measured values: ChEMBL document CHEMBL5465560, “Selectivity Literature for EUbOPEN Chemogenomic Library” (2024)
Blank lines part the entries; values can stand above or below the compound they belong to.

Legend:
[1] = molecular target: Serine/threonine-protein kinase SBK1 (Homo sapiens) (UniProt Q52WX2); details: at 10 µM
[2] = molecular target: Mitogen-activated protein kinase 3 (Homo sapiens, UniProt P27361); assay: Selectivity interaction (KinomeScan (DiscoverX)) EUB0001049a MAPK3; details: at 1 µM
Chain of Mitogen-activated protein kinase 3 (P27361 whole entry): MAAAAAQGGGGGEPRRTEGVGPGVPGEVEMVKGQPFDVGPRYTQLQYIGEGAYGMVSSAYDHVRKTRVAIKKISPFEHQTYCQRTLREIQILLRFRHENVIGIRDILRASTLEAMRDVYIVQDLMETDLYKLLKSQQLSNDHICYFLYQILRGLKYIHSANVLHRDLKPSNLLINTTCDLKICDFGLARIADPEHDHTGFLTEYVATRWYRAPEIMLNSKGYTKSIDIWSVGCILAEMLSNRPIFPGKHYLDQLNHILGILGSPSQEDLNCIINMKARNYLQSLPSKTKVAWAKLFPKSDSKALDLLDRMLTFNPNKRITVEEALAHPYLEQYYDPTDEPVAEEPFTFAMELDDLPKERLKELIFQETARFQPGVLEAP

[3] = system: Proto-oncogene tyrosine-protein kinase receptor Ret (Homo sapiens), P07949 [M918T]; details: at 10 µM
Chain of Proto-oncogene tyrosine-protein kinase receptor Ret (Homo sapiens), P07949 [M918T] (P07949 whole entry M918T): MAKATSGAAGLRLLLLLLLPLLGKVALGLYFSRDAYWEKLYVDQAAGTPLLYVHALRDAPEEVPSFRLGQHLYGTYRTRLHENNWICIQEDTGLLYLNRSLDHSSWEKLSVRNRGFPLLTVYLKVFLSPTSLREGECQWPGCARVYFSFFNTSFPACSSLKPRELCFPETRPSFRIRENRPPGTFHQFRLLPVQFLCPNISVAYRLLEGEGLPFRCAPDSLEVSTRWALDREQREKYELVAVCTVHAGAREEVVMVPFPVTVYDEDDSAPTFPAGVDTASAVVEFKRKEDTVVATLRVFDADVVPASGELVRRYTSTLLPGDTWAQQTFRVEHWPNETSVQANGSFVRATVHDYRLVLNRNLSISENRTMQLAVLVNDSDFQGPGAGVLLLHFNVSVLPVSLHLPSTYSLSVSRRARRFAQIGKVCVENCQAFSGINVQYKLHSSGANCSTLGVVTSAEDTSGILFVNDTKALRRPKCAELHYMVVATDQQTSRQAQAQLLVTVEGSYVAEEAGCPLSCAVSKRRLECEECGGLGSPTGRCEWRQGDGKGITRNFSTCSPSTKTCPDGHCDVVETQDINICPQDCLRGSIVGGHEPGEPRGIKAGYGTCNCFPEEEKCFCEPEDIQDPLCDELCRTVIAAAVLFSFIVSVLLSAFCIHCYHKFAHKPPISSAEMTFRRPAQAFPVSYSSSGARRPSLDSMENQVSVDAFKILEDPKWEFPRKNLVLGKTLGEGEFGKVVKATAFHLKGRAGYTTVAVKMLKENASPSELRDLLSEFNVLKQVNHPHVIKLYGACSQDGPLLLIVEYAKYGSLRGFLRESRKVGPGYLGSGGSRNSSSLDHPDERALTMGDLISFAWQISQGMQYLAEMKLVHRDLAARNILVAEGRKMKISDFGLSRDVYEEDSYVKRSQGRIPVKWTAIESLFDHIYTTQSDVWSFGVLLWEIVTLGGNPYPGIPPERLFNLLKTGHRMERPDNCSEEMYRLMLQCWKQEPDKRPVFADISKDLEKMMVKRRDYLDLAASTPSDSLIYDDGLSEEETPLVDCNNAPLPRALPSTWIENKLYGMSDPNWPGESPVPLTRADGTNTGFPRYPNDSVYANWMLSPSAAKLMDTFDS

[4] = molecular target: Tyrosine-protein kinase Yes (Homo sapiens) (UniProt P07947); assay: Selectivity interaction (KinomeScan (DiscoverX)) EUB0000092b YES1; details: at 10 µM
Chain of Tyrosine-protein kinase Yes (Homo sapiens) (P07947 2-543 limits assumed): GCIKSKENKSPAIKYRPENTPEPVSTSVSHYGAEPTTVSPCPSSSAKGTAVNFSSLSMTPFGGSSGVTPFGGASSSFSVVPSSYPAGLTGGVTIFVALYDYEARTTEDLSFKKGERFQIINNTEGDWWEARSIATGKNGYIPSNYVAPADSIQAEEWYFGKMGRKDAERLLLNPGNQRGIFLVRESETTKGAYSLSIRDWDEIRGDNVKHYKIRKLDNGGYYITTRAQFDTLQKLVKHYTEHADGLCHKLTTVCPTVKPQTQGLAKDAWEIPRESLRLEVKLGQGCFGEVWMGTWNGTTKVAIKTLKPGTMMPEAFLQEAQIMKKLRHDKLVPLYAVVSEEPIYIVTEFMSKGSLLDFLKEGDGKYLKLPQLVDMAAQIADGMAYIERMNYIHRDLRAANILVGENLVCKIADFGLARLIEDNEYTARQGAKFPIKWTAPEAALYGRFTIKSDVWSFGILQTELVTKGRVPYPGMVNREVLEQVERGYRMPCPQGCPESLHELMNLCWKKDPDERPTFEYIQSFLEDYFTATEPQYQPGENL

[5] = molecular target: T1, Inhibitor of nuclear factor kappa-B kinase subunit epsilon (Homo sapiens) (UniProt Q14164); assay: Selectivity interaction (KinomeScan (DiscoverX)) EUB0000655a IKBKE; details: at 10 µM
T1 sequence (whole entry): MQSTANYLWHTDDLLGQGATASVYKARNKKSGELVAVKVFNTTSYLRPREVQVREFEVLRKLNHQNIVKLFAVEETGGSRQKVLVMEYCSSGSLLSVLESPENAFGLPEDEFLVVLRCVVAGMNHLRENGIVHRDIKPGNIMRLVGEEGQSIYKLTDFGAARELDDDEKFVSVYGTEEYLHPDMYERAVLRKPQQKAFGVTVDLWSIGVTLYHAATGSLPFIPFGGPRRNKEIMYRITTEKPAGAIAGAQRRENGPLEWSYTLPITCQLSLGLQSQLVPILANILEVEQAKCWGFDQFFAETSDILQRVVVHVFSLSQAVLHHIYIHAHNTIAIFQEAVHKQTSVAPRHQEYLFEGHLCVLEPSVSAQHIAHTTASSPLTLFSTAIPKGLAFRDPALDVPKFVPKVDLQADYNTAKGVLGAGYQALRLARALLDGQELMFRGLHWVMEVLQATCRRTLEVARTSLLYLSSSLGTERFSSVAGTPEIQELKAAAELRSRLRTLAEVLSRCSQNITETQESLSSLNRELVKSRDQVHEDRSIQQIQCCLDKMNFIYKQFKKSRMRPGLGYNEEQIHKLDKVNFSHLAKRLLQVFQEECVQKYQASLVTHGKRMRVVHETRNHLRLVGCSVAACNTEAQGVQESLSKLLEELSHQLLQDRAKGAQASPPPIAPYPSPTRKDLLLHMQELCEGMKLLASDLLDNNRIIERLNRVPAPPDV

[6] = system: T2, Receptor-type tyrosine-protein kinase FLT3 (Homo sapiens), P36888 [D835H]; assay: Selectivity interaction (KinomeScan (DiscoverX)) EUB0000618a FLT3; details: at 10 µM
T2 sequence (whole entry): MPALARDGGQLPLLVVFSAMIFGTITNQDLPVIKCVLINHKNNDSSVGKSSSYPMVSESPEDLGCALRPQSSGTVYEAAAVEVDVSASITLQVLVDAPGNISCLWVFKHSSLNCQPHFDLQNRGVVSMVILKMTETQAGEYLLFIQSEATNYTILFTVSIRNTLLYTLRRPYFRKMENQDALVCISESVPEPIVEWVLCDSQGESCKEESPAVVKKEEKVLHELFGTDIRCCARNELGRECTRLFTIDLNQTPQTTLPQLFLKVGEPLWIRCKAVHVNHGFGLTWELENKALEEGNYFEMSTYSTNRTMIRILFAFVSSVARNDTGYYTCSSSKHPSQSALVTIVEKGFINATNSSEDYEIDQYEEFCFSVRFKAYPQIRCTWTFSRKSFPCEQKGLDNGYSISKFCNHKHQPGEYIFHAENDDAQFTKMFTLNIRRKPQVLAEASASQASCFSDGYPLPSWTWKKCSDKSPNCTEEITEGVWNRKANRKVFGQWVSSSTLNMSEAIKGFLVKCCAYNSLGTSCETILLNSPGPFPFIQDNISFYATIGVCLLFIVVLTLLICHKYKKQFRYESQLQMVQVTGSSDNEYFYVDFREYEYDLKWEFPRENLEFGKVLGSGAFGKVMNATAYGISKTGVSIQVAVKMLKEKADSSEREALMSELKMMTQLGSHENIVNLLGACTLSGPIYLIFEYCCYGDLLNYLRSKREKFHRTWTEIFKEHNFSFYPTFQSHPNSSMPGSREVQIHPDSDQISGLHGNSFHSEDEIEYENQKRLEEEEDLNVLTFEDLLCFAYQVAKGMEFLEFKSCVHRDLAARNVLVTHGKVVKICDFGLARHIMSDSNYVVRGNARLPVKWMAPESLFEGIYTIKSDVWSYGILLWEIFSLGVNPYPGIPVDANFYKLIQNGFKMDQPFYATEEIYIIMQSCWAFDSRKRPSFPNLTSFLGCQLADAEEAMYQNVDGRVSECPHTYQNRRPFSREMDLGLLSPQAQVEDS

Chain of Serine/threonine-protein kinase SBK1 (Homo sapiens) (Q52WX2 whole entry): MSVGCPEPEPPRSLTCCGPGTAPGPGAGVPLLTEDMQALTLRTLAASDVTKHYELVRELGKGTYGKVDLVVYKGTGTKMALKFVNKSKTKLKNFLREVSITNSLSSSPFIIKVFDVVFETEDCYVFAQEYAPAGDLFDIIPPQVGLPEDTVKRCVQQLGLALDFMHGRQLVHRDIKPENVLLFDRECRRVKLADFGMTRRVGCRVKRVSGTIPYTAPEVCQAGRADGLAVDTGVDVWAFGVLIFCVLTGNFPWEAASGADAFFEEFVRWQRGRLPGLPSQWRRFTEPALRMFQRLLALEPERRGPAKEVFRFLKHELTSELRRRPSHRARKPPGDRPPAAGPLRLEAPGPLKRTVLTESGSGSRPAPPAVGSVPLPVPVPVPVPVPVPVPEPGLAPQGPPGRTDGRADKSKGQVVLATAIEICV

Structure (SMILES): Cc1cc([C@@H](C)Nc2ccccc2C(=O)O)c2nc(N3CCOCC3)cc(=O)n2c1 [AZD-6482]
% of control [1]: 100%

Structure (SMILES): COc1cc(Nc2nc(C)cc(-c3cnn4nc(OC)ccc34)n2)cc(C(F)(F)F)c1
% of control [2]: 98%

% of control [3]: 100%
Structure (SMILES): CCN(CC)CCCCNc1ncc2cc(-c3cc(OC)cc(OC)c3)c(NC(=O)NC(C)(C)C)nc2n1

Structure (SMILES): CCC(=O)N1CCN(c2ccc(-n3c(=O)ccc4cnc5ccc(-c6cnc7ccccc7c6)cc5c43)cc2C(F)(F)F)CC1
% of control [4]: 74%

Structure (SMILES): CN(C)CCOc1ccc(-c2nc(-c3ccncc3)c(-c3ccc4c(c3)CC/C4=N\O)[nH]2)cc1
% of control [5]: 85%

Structure (SMILES): O[C@H]1CC[C@H](Nc2ncc3nc(Nc4c(F)cc(F)cc4F)n([C@H]4CCOC4)c3n2)CC1
% of control [6]: 67%
